Measurements from US4698350A, “1-ethyl-6-fluoro-1,4-dihydro- 7-(2,6-dimethyl-4-pyridinyl)-4-oxo-3-quinolinecarboxylic acid and antibacterial use thereof” (Sterling Drug Inc., priority 1984, dated 1987).
Converted amounts (≈) assume the structure as drawn.

Columns and labels:
Assay in all cases: In vitro antibacterial MIC/MBC test
Format in all cases: cell-based
[1] = system: S. pyogenes C203; conditions: Streptococcus pyogenes, S. pyogenes C203
Protocol: (§1) Win 52,522 and Win 35,439 were solubilized in 0.1 ml of 0.5 N NaOH/mg of compound and diluted in sterile distilled water to 160 mcg/ml. Vancomycin and methicillin were solubilized in sterile distilled water to 1250 mcg/ml of base compound. The stock solutions were sterilized by filtration through membrane filters with a 0.45 μm pore size.
(§2) The bacterial cultures listed in Table I (hereinbelow) were grown overnight at 37° C. in MHB for all cultures except the Streptococcus strains. These were grown in BHI+10% NHS. The overnight broth cultures were adjusted to an optical density of 0.10 (650 nm, B L Spectronic 20) in sterile distilled water and subsequently diluted to 6.7×10^6 cells/ml in MHB or BHI+1% NHS.
(§3) Serial two-fold dilutions of the compound solutions were prepared in MHB (or in BHI+1% NHS for tests with Streptococci) and dispensed into 96-well microtiter trays in a volume of 0.1 ml/well using a Sandy Springs (Bellco Glass Co.) dispenser. The trays were then inoculated with 0.0015 ml of a suspension containing 6.7×10^6 cells/ml of the appropriate inoculum using a MIC-2000 inoculator (Dynatech Corp.) resulting in a final inoculum of approximately 1×10^4 cells/well or 1×10^5 cells/ml. The trays were incubated at 37° C. for 18-20 hours and the minimal inhibitory concentration (MIC), defined as the lowest concentration of compound to inhibit visible bacterial growth, was recorded.
(§4) After the MIC values were recorded, the contents in the microtiter trays were thoroughly mixed on a Bellco Mini-orbital Shaker (Bellco Glass Co.) for 3 min. at a setting of 8. A portion (0.0015 ml) from each well was then transferred via an MIC-2000 inoculator to plates containing MHA or BHI agar+10% NHS. The plates were incubated at 37° C. for 18-20 hrs. The minimal bactericidal concentration (MBC), defined as the lowest concentration of compound that prevented the formation of a recognizable colony on the agar surface, was recorded.

[2] = system: S. enterococcus 0-2-13
Protocol: as §1, §2, §3, §4

[3] = system: S. aureus 39881; conditions: Staphylococcus aureus, S. aureus 39881
Protocol: as §1, §2, §3, §4

[4] = system: S. epidermidis (17917); conditions: Staphylococcus epidermidis, ATCC17917, S. epidermidis ATCC No. 17917
Protocol: as §1, §2, §3, §4

[5] = system: S. aureus 59-81; conditions: Staphylococcus aureus, 5981, S. aureus 59-81
Protocol: as §1, §2, §3, §4

[6] = system: S. aureus Smith; conditions: Staphylococcus aureus, S. aureus Smith
Protocol: as §1, §2, §3, §4

[7] = system: S. aureus 21-81A; conditions: Staphylococcus aureus, 2181A, S. aureus 21-81A
Protocol: as §1, §2, §3, §4

[8] = system: S. aureus 24-81; conditions: Staphylococcus aureus, 2481, S. aureus 24-81
Protocol: as §1, §2, §3, §4

[9] = system: S. aureus 10-81; conditions: Staphylococcus aureus, 1081, S. aureus 10-81
Protocol: as §1, §2, §3, §4

[10] = system: S. epidermidis 2-1-B; conditions: Staphylococcus epidermidis, 21B, S. epidermidis 2-1-B
Protocol: as §1, §2, §3, §4

[11] = system: S. aureus Glorgio; conditions: Staphylococcus aureus, S. aureus Glorgio
Protocol: as §1, §2, §3, §4

[12] = system: S. faecalis 4510; conditions: Enterococcus faecalis, S. faecalis 4510
Protocol: as §1, §2, §3, §4

[13] = system: S. aureus S-234; conditions: Staphylococcus aureus, S234, S. aureus S-234
Protocol: as §1, §2, §3, §4

[14] = system: S. aureus 41-81; conditions: Staphylococcus aureus, 4181, S. aureus 41-81
Protocol: as §1, §2, §3, §4

[15] = system: S. faecalis (11700); conditions: Enterococcus faecalis, ATCC11700, S. faecalis ATCC No. 11700
Protocol: as §1, §2, §3, §4

[16] = system: S. aureus S-500; conditions: Staphylococcus aureus, S500, S. aureus S-500
Protocol: as §1, §2, §3, §4

[17] = system: S. aureus 34-81; conditions: Staphylococcus aureus, 3481, S. aureus 34-81
Protocol: as §1, §2, §3, §4

[18] = system: S. pneumoniae Type III
Protocol: as §1, §2, §3, §4

[19] = system: S. aureus 13-8-A; conditions: Staphylococcus aureus, 138A, S. aureus 13-8-A
Protocol: as §1, §2, §3, §4

[20] = system: S. faecalis (8043); conditions: Enterococcus faecalis, ATCC8043, S. faecalis ATCC No. 8043
Protocol: as §1, §2, §3, §4

[21] = system: S. pneumoniae Type I; conditions: Streptococcus pneumoniae, S. pneumoniae Type I
Protocol: as §1, §2, §3, §4

[22] = system: S. pyogenes 7948-15; conditions: Streptococcus pyogenes, 794815, S. pyogenes 7948-15
Protocol: as §1, §2, §3, §4

With `CCn1cc(C(=O)O)c(=O)c2cc(F)c(-c3cc(C)nc(C)c3)cc21` [Win 52,522, 1-ethyl-6-fluoro-1,4-dihydro-7-(2,6-dimethyl-4-pyridinyl)-4-oxo-3-quinolinecarboxylic acid] the MBC ([1]; read-out: MBC) was 0.5 µg/mL (≈ 1.47 µM), the MIC ([1]; read-out: MIC) was 0.5 µg/mL (≈ 1.47 µM) and the MBC ([2]; 0213, S. enterococcus 0-2-13, read-out: MBC) was 0.25 µg/mL (≈ 0.735 µM). The MIC ([2]; 0213, S. enterococcus 0-2-13, read-out: MIC) was 0.25 µg/mL (≈ 0.735 µM), the “potency relative to vancomycin” value ([2]; in vitro, enterococcus strain 0-2-B) was “equal in potency” and the MBC ([3]; read-out: MBC) was 0.03 µg/mL (≈ 0.0881 µM). The MIC ([3]; read-out: MIC) was 0.015 µg/mL (≈ 0.0441 µM), the MBC ([4]; read-out: MBC) was 0.125 µg/mL (≈ 0.367 µM) and the MIC ([4]; read-out: MIC) was 0.06 µg/mL (≈ 0.176 µM). The MBC ([5]; read-out: MBC) was 0.03 µg/mL (≈ 0.0881 µM), the MIC ([5]; read-out: MIC) was 0.015 µg/mL (≈ 0.0441 µM) and the MBC ([6]; read-out: MBC) was 0.03 µg/mL (≈ 0.0881 µM). The MIC ([6]; read-out: MIC) was 0.03 µg/mL (≈ 0.0881 µM), the MBC ([7]; read-out: MBC) was 0.015 µg/mL (≈ 0.0441 µM) and the MIC ([7]; read-out: MIC) was 0.015 µg/mL (≈ 0.0441 µM). It also gave an MBC ([8]; read-out: MBC) of 0.03 µg/mL (≈ 0.0881 µM), an MIC ([8]; read-out: MIC) of 0.015 µg/mL (≈ 0.0441 µM) and an MBC ([9]; read-out: MBC) of 0.03 µg/mL (≈ 0.0881 µM). It also gave an MIC ([9]; read-out: MIC) of 0.03 µg/mL (≈ 0.0881 µM), an MBC ([10]; read-out: MBC) of 0.03 µg/mL (≈ 0.0881 µM) and an MIC ([10]; read-out: MIC) of 0.03 µg/mL (≈ 0.0881 µM). For the same compound, the MBC ([11]; read-out: MBC) was 0.015 µg/mL (≈ 0.0441 µM), the MIC ([11]; read-out: MIC) was less than 0.008 µg/mL and the MBC ([12]; read-out: MBC) was 0.125 µg/mL (≈ 0.367 µM). It also gave an MIC ([12]; read-out: MIC) of 0.125 µg/mL (≈ 0.367 µM), an MBC ([13]; read-out: MBC) of 0.03 µg/mL (≈ 0.0881 µM) and an MIC ([13]; read-out: MIC) of 0.015 µg/mL (≈ 0.0441 µM). For the same compound, the MBC ([14]; read-out: MBC) was 0.015 µg/mL (≈ 0.0441 µM), the MIC ([14]; read-out: MIC) was 0.015 µg/mL (≈ 0.0441 µM) and the MBC ([15]; read-out: MBC) was 0.25 µg/mL (≈ 0.735 µM). It also gave an MIC ([15]; read-out: MIC) of 0.25 µg/mL (≈ 0.735 µM), an MBC ([16]; read-out: MBC) of 0.06 µg/mL (≈ 0.176 µM) and an MIC ([16]; read-out: MIC) of 0.03 µg/mL (≈ 0.0881 µM). For the same compound, the MBC ([17]; read-out: MBC) was 0.03 µg/mL (≈ 0.0881 µM), the MIC ([17]; read-out: MIC) was 0.03 µg/mL (≈ 0.0881 µM) and the MBC ([18]; Streptococcus pneumoniae, S. pneumoniae Type III, read-out: MBC) was 0.5 µg/mL (≈ 1.47 µM). The MIC ([18]; Streptococcus pneumoniae, S. pneumoniae Type III, read-out: MIC) was 0.5 µg/mL (≈ 1.47 µM), the “times less potent than vancomycin” value ([18]; in vitro, S. pneumoniae type III) was 8 times and the MBC ([19]; read-out: MBC) was 0.03 µg/mL (≈ 0.0881 µM). The MIC ([19]; read-out: MIC) was 0.03 µg/mL (≈ 0.0881 µM), the MBC ([20]; read-out: MBC) was 0.5 µg/mL (≈ 1.47 µM) and the MIC ([20]; read-out: MIC) was 0.25 µg/mL (≈ 0.735 µM). It also gave an MBC ([21]; read-out: MBC) of 0.25 µg/mL (≈ 0.735 µM), an MIC ([21]; read-out: MIC) of 0.25 µg/mL (≈ 0.735 µM) and an MBC ([22]; read-out: MBC) of 0.5 µg/mL (≈ 1.47 µM). The MIC ([22]; read-out: MIC) was 0.5 µg/mL (≈ 1.47 µM).
